Entries after “also recorded” stand apart in the source; their conditions may differ.
System: engineered heart tissue (EHT) rings from heart cells of neonatal rats
Assay: isometric contraction experiments of single EHT rings (twitch tension, calcium response curves)
Type: cell-based, rat
Conditions: culture medium supplemented with 10 pg/ml insulin vs untreated controls; n=4 vs n=3
Procedure: In a further step, the force-generating engineered heart tissue rings, which are in contact with each other, are cultured under conditions which allow the fusion of the contacted ring structures to form an artificial heart muscle construct. For this purpose, the engineered heart tissue rings are normally incubated in culture dishes, wherein the rings are submersed in appropriate culture medium. If a holding device is used for culturing, the device should be designed to allow the tissue rings to stay in continuous contact with the culture medium. The choice of the culture medium is not critical. Conventional media for culturing cardiac myocytes may be used. Such media are known in the art and described, for example, in Zimmermann, W. H. et al., Circulation 106, I 151-7 (2002) and published International Application WO 01/55297. […]
FIGS. 1A-1F show the influences of oxygen, load, and insulin in isometric contraction experiments in single engineered heart tissue (EHT) rings (TT: twitch tension). […] To increase size, 5 EHT rings (FIG. 1D) were stacked in a custom made device that facilitate EHT fusion and contractions under auxotonic load (FIG. 1E), resulting in synchronously contracting multiring EHT constructs (FIG. 1F) ready for in vivo engraftment. *P<0.05 vs. 21% 02, static load, and culture in the absence of insulin (Ctr.), respectively by repeated ANOVA. […]

## insulin
  contracting characteristics (twitch tension) of EHT rings: benefited; also recorded: enhanced contracting characteristics

Reference: patent US10894946B2, “Multiloop engineered heart muscle tissue” (Tissue Systems Holding GmbH, priority 2005, dated 2021)
